For 11 molecules, T/C results are on record in PubChem BioAssay AID256 (DTP/NCI, 2004).

“And” between values parts separate entries of the source, which are not always exact repeats. Equal entries are not always repeated. Inconclusive results and toxic doses are left out.

In the test the test system is CD2F1 mice, L1210 leukemia ip, survival T/C. As to the kind of experiment: NCI In Vivo Anticancer Drug Screen. Data for tumor model L1210 Leukemia (intraperitoneal) in CD2F1 (CDF1) mice. The following applies: higher = longer survival. In short, it runs like this:
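Antitumor effect is scored in animals hosting a serially transplanted tumor. Values compare compound-dosed animals against vehicle-only controls as a simple quotient.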

Setting [1] is: endpoint: mean survival time, dose: 50.0 mg/kg/injection, schedule: Q01DX009 (ip), vehicle: saline with Tween-80.
The mark [2] stands for this setting: endpoint: mean survival time, dose: 100.0 mg/kg/injection, schedule: Q01DX009 (ip), vehicle: saline with Tween-80.
[3] abbreviates: endpoint: mean survival time, dose: 100.0 mg/kg/injection, schedule: Q04DX003 (ip), vehicle: saline with Tween-80.
[4] abbreviates: endpoint: mean survival time, dose: 100.0 mg/kg/injection, schedule: Q01DX001 (ip), vehicle: saline.
Where [5] appears, read: endpoint: mean survival time, dose: 200.0 mg/kg/injection, schedule: Q01DX001 (ip), vehicle: saline.
Where [6] appears, read: endpoint: mean survival time, dose: 400.0 mg/kg/injection, schedule: Q01DX001 (ip), vehicle: saline.

Regarding `COc1cc2c(c(OC)c1OC)-c1ccc(OC)c(=O)cc1[C@@H](NC(C)=O)CC2`, the T/C reads like this: (endpoint: mean survival time, dose: 0.02 mg/kg/injection, schedule: Q01DX009 (ip), vehicle: saline) 117 % of control; (endpoint: mean survival time, dose: 0.03 mg/kg/injection, schedule: Q01DX009 (ip), vehicle: water) 93 % of control; (endpoint: mean survival time, dose: 0.04 mg/kg/injection, schedule: Q01DX009 (ip), vehicle: saline) 103 % of control; (endpoint: mean survival time, dose: 0.05 mg/kg/injection, schedule: Q01DX009 (ip), vehicle: saline) 102 % of control; (endpoint: mean survival time, dose: 0.06 mg/kg/injection, schedule: Q01DX005 (ip), vehicle: Klucel (hydroxypropylcellulose) (HPC)) 103 % of control; (endpoint: mean survival time, dose: 0.08 mg/kg/injection, schedule: Q01DX009 (ip), vehicle: saline) 105 % of control. Further, the T/C (endpoint: mean survival time, dose: 0.1 mg/kg/injection, schedule: Q01DX009 (ip), vehicle: saline) is 100 % of control; the T/C (endpoint: mean survival time, dose: 0.13 mg/kg/injection, schedule: Q01DX005 (ip), vehicle: Klucel (hydroxypropylcellulose) (HPC)) was 97 % of control; the T/C (endpoint: mean survival time, dose: 0.13 mg/kg/injection, schedule: Q01DX005 (ip), vehicle: water) was 117 % of control; the T/C (endpoint: mean survival time, dose: 0.16 mg/kg/injection, schedule: Q01DX009 (ip), vehicle: saline) is 111 % of control; the T/C (endpoint: mean survival time, dose: 0.19 mg/kg/injection, schedule: Q01DX009 (ip), vehicle: saline) was 104 % of control; the T/C (endpoint: mean survival time, dose: 0.25 mg/kg/injection, schedule: Q01DX005 (ip), vehicle: Klucel (hydroxypropylcellulose) (HPC)) was 114 % of control. For the same molecule, the T/C (endpoint: mean survival time, dose: 0.25 mg/kg/injection, schedule: Q01DX005 (ip), vehicle: water) was 122 % of control; the T/C (endpoint: mean survival time, dose: 0.35 mg/kg/injection, schedule: Q04DX004 (ip), vehicle: saline) is 111 % of control; the T/C (endpoint: mean survival time, dose: 0.38 mg/kg/injection, schedule: Q01DX009 (ip), vehicle: saline) is 111 % of control; the T/C (endpoint: mean survival time, dose: 0.5 mg/kg/injection, schedule: Q01DX005 (ip), vehicle: Klucel (hydroxypropylcellulose) (HPC)) was 123 % of control; the T/C (endpoint: mean survival time, dose: 0.54 mg/kg/injection, schedule: Q04DX004 (ip), vehicle: saline) was 112 % of control; the T/C (endpoint: mean survival time, dose: 0.75 mg/kg/injection, schedule: Q01DX009 (ip), vehicle: saline) was 118 % of control and 111 % of control. In addition, the T/C was 115 % of control (endpoint: mean survival time, dose: 0.8 mg/kg/injection, schedule: Q04DX004 (ip), vehicle: saline); 122 % of control (endpoint: mean survival time, dose: 1.2 mg/kg/injection, schedule: Q04DX004 (ip), vehicle: saline); 88 % of control and 100 % of control (endpoint: median survival time, dose: 0.02 mg/kg/injection, schedule: Q01DX009 (ip), vehicle: saline); 100 % of control (endpoint: median survival time, dose: 0.04 mg/kg/injection, schedule: Q01DX009 (ip), vehicle: saline); 100 % of control and 105 % of control (endpoint: median survival time, dose: 0.08 mg/kg/injection, schedule: Q01DX009 (ip), vehicle: saline); 111 % of control (endpoint: median survival time, dose: 0.13 mg/kg/injection, schedule: Q01DX005 (ip), vehicle: saline). Further, the T/C was 114 % of control and 111 % of control (endpoint: median survival time, dose: 0.16 mg/kg/injection, schedule: Q01DX009 (ip), vehicle: saline); 123 % of control (endpoint: median survival time, dose: 0.25 mg/kg/injection, schedule: Q01DX005 (ip), vehicle: saline); 164 % of control (endpoint: median survival time, dose: 1.0 mg/kg/injection, schedule: Q01DX005 (ip), vehicle: saline); 111 % of control (endpoint: median survival time, dose: 2.0 mg/kg/injection, schedule: Q01DX005 (ip), vehicle: saline).
For `Cc1c(NC(=O)Nc2ccc(C3=NCCCN3)cc2)cccc1NC(=O)Nc1ccc(C2=NCCCN2)cc1`, the T/C is 162 % of control (endpoint: mean survival time, dose: 125.0 mg/kg/injection, schedule: Q01DX Z (ip), vehicle: water); 177 % of control (endpoint: mean survival time, dose: 250.0 mg/kg/injection, schedule: Q01DX Z (ip), vehicle: water); 224 % of control (endpoint: mean survival time, dose: 500.0 mg/kg/injection, schedule: Q01DX Z (ip), vehicle: water).
Consider `[Co].[NH-]CC[NH-].[NH-]CC[NH-].[NH-]CC[S-]`, for which the T/C runs as follows: (endpoint: mean survival time, dose: 100.0 mg/kg/injection, schedule: Q04DX002 (ip), vehicle: saline) 112 % of control; (endpoint: mean survival time, dose: 200.0 mg/kg/injection, schedule: Q04DX002 (ip), vehicle: saline) 101 % of control; (endpoint: mean survival time, dose: 400.0 mg/kg/injection, schedule: Q04DX002 (ip), vehicle: saline) 104 % of control.
Regarding `Cn1c(-c2ccccc2)cc(=O)cc1-c1ccccc1`, the T/C is, setting by setting: under setting [1], 96 % of control; under setting [2], 93 % of control; under setting [3], 91 % of control; (endpoint: mean survival time, dose: 200.0 mg/kg/injection, schedule: Q01DX009 (ip), vehicle: saline with Tween-80) 94 % of control; (endpoint: mean survival time, dose: 200.0 mg/kg/injection, schedule: Q04DX003 (ip), vehicle: saline with Tween-80) 97 % of control.
On to `C=C(NC(=O)C(=C)NC(=O)c1csc(C2=NC3c4csc(n4)C4NC(=O)c5csc(n5)C(C(C)(O)C(C)O)NC(=O)C5CSC(=N5)/C(=C/C)NC(=O)C(C(C)O)NC(=O)c5csc(n5)C3(CC2)NC(=O)C(C)NC(=O)C(=C)NC(=O)C(=C)NC(=O)C(C(C)C)NC2C=Cc3c(C(C)O)cc(nc3C2O)C(=O)OC4C)n1)C(N)=O` (centres undefined), for which the T/C reads like this: (endpoint: mean survival time, dose: 3.12 mg/kg/injection, schedule: Q01DX009 (ip), vehicle: saline) 107 % of control; (endpoint: mean survival time, dose: 6.25 mg/kg/injection, schedule: Q01DX009 (ip), vehicle: saline) 113 % of control; (endpoint: mean survival time, dose: 12.5 mg/kg/injection, schedule: Q01DX009 (ip), vehicle: saline) 124 % of control and 108 % of control; (endpoint: mean survival time, dose: 25.0 mg/kg/injection, schedule: Q01DX009 (ip), vehicle: saline) 113 % of control and 115 % of control; (endpoint: mean survival time, dose: 50.0 mg/kg/injection, schedule: Q01DX009 (ip), vehicle: saline) 120 % of control; (endpoint: mean survival time, dose: 100.0 mg/kg/injection, schedule: Q01DX009 (ip), vehicle: saline) 113 % of control and 124 % of control. For the same molecule, the T/C (endpoint: mean survival time, dose: 200.0 mg/kg/injection, schedule: Q01DX009 (ip), vehicle: saline) is 124 % of control and 108 % of control.
In the case of `CC1CC(O)C(N)C(O)C1` (centres undefined), the T/C reads like this: under setting [4], 103 % of control; under setting [5], 98 % of control; under setting [6], 98 % of control.
Take `C=CCCCCCCCCC(=O)Nc1cc2c3c(c1)CCCN3CCC2`: the T/C is, setting by setting: under setting [1], 97 % of control; under setting [2], 101 % of control; under setting [3], 93 % of control.
Take `O=c1[nH]cnc2c1ncn2C1OC(CO)C(O)C1O` (centres undefined): the T/C is, setting by setting: (endpoint: mean survival time, dose: 50.0 mg/kg/injection, schedule: Q01DX001 (ip), vehicle: saline) 100 % of control; under setting [4], 100 % of control; under setting [5], 97 % of control; under setting [6], 100 % of control.
For the molecule `O=C(O)CC(=O)O.OC(CN=Cc1ccccc1)CN=Cc1ccccc1.[Pt]` (centres undefined), the T/C was 103 % of control (endpoint: median survival time, dose: 10.0 mg/kg/injection, schedule: Q04DX003 (ip), vehicle: distilled water + Tween-80); 104 % of control (endpoint: median survival time, dose: 20.0 mg/kg/injection, schedule: Q04DX003 (ip), vehicle: distilled water + Tween-80); 102 % of control (endpoint: median survival time, dose: 40.0 mg/kg/injection, schedule: Q04DX003 (ip), vehicle: distilled water + Tween-80); 116 % of control and 105 % of control (endpoint: median survival time, dose: 80.0 mg/kg/injection, schedule: Q04DX003 (ip), vehicle: distilled water + Tween-80); 108 % of control (endpoint: median survival time, dose: 160.0 mg/kg/injection, schedule: Q04DX003 (ip), vehicle: distilled water + Tween-80); 109 % of control (endpoint: median survival time, dose: 320.0 mg/kg/injection, schedule: Q04DX003 (ip), vehicle: distilled water + Tween-80).
On to `CC(=O)On1nnc2ccccc2c1=O`, for which the T/C is, setting by setting: (endpoint: mean survival time, dose: 12.5 mg/kg/injection, schedule: Q01DX001 (ip), vehicle: distilled water + Tween-80) 101 % of control; (endpoint: mean survival time, dose: 25.0 mg/kg/injection, schedule: Q01DX001 (ip), vehicle: distilled water + Tween-80) 100 % of control; (endpoint: mean survival time, dose: 50.0 mg/kg/injection, schedule: Q01DX001 (ip), vehicle: distilled water + Tween-80) 95 % of control; (endpoint: mean survival time, dose: 100.0 mg/kg/injection, schedule: Q01DX001 (ip), vehicle: distilled water + Tween-80) 90 % of control.
Consider `O=C(/C=C/c1ccco1)c1ccc2ccccc2c1`, for which the T/C by setting is: under setting [4], 102 % of control; under setting [5], 94 % of control; under setting [6], 94 % of control.
